Laboratory results published in patent US12060351B2, “Thiadiazole IRAK4 inhibitors” (Gilead Sciences, Inc., priority 2018, dated 2024).
Like-named read-outs stand apart in the source and are kept apart here.

Columns and labels:
TNFα = experiment: IRAK4 Monocyte TNFα Cell Based Assay (LPS-stimulated, TR-FRET TNFα detection); design: species or system human; settings: read-out: EC50 MONO TNF HTRF
Procedure: IRAK4 Monocyte TNFα Cell Based Assay Procedure:
The cell suspension was then plated at a density of 5,000 cells/well onto black 384 well Greiner clear bottom plates. Plates were pre-spotted with test compounds and serially diluted in DMSO where 40 nL/well were delivered using the Echo 550 acoustic liquid dispenser (Labcyte®) for a final DMSO concentration of 0.1%. Plated cells were treated with compound for 1 hour at 37° C. Cells were then stimulated with 50 pg/ml of LPS (Sigma) excluding outside columns of plate used for unstimulated cell control wells. Cells were incubated for an additional 4 hours at 37° C. Cells were then spun out of the media and 5 μl of sample were taken and analyzed for total TNFα content using the TR-FRET Human TNFα detection system (CisBio). This system utilizes two labeled antibodies (cryptate and XL665) that bind to two different epitopes of the TNFα molecule and produce FRET signal proportional to the concentration of TNFα in the sample. Detection antibodies are mixed 50:50 and 5 μL were dispensed into each well. Plates were covered with clear seals and incubated at room temp overnight. […] Percent of control was calculated as follows: % Control=100×(RatioSample−Ratio0% Stimulation)/(Ratio100% Stimulation−Ratio0% Stimulation) where unstimulated cells (0% stimulation) were the negative control and stimulated cells (100% stimulation) were used as the positive control.

IRAK4 enzyme = target: T1, IRAK4 enzyme (Homo sapiens, UniProt Q9NWZ3); experiment: IRAK4 Biochemical Assay (TR-FRET, STK1 KinEASE); settings: 500 μM ATP
T1 construct: purchased Carna Biosciences, Chuo-ku, Kobe, Japan
T1 sequence (Q9NWZ3 1-460): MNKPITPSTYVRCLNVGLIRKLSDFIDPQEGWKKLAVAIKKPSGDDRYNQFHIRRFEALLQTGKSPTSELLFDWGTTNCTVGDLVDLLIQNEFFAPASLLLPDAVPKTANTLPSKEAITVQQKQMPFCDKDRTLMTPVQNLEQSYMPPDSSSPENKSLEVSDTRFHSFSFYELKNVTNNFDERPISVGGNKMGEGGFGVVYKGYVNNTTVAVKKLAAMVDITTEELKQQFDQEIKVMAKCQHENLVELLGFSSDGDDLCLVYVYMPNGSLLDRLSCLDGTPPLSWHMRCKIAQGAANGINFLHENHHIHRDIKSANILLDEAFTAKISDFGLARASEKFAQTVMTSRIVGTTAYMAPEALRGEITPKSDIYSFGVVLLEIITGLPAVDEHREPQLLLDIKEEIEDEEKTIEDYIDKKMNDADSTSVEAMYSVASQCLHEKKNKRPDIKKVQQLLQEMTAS
Procedure: IRAK4 enzyme (Carna Biosciences, Chuo-ku, Kobe, Japan) activity was measured by detecting phosphorylated peptide substrate formation using an antibody against the phosphorylated peptide substrate. This is a time-resolved fluorescence resonance energy transfer (TR-FRET) immunoassay, based on the STK1 KinEASE Assay (Cisbio, Bedford, Massachusetts). The assay was designed as a simple two-step, endpoint assay (a 5 μl enzyme reaction followed by 5 μl stop and detect Solution) performed in ProxiPlate-384 Plus plates (Perkin Elmer, Waltham, Massachusetts). […] Compounds diluted in DMSO were spotted into 384 well plates using a Labcyte® Echo 550 Liquid Handling System prior to addition of IRAK4 enzyme and peptide substrate. Reaction solutions were delivered using a Multi-Flo (Bio-Tek Instruments). The enzyme and peptide solution was incubated with compound for 15 minutes at room temp before the reaction was initiated by the addition of ATP. The standard 5 μl reaction mixture contained 500 μM ATP, 2 μM peptide (STK1 Peptide), 0.75 nM of IRAK4 in reaction buffer (50 mM HEPES, pH 7.0, 0.02% NaN3, 0.01% BSA, 0.1 mM Orthovanadate, 5 mM MgCl2, 0.025% NP-40, 1 mM DTT). After 120 min of incubation at room temperature, 5 μl of Stop and Detect Solution (1:100 Cryptate labeled anti-phosphorylated peptide antibody solution and 125 nM Tracer in a 50 mM HEPES pH 7.0 detection buffer containing sufficient EDTA) was added. The plate was then further incubated for 60 minutes at room temperature and read on Envision 2103 Multilabeled reader (PerkinElmer) with excitation/emission/FRET emission at 340 nm/615 nm/665 nm, respectively. Fluorescence intensities at 615 nm and 665 nm emission wavelengths were expressed as a ratio (665 nm/615 nm).

[1] = Homo sapiens, Monocyte, human monocytes, LPS-stimulated, Table 2 second part (compounds 33-343)
[2] = Table 2 second part (compounds 33-343), read-out: IC50 IRAK4-HTBS

## CC(C)Nc1cc(-c2ccc3cc(C#N)cnn23)ncc1-c1nnc(N2C[C@H]3CC[C@@H](C2)[C@@H]3NC(=O)C2CC2)s1 [Example 150, N-((1R,5S,8s)-3-(5-(6-(3-cyanopyrrolo[1,2-b]pyridazin-7-yl)-4-(isopropylamino)pyridin-3-yl)-1,3,4-thiadiazol-2-yl)-3-azabicyclo[3.2.1]octan-8-yl)cyclopropanecarboxamide]
TNFα; [1]
  EC50: 5.2 nM
IRAK4 enzyme; [2]
  IC50: 0.46 nM

## CC(=O)NC[C@H]1C[C@H](c2nnc(-c3cnc(-c4ccc5cc(C#N)cnn45)cc3NC(C)C)s2)C1 [Compound 290, N-(((1r,3r)-3-(5-(6-(3-cyanopyrrolo[1,2-b]pyridazin-7-yl)-4-(isopropylamino)pyridin-3-yl)-1,3,4-thiadiazol-2-yl)cyclobutyl)methyl)acetamide]
TNFα; [1]
  EC50: 16.2 nM
IRAK4 enzyme; [2]
  IC50: 0.33 nM

## 7-(5-(5-(4-aminobicyclo[2.2.2]octan-1-yl)-1,3,4-thiadiazol-2-yl)-4-((tetrahydro-2H-pyran-4-yl)amino)pyridin-2-yl)pyrrolo[1,2-b]pyridazine-3-carbonitrile [Example 336]
TNFα; human monocytes, LPS-stimulated, Table 2 second part (compounds 33-343)
  EC50: 11 nM
IRAK4 enzyme; [2]
  IC50: 0.7 nM

## CC(C)Nc1cc(-c2ccc3cc(C#N)cnn23)ncc1-c1nnc(N2C[C@H]3CC[C@@H](C2)[C@@H]3NC(=O)N2CCOCC2)s1 [Example 57, N-((1R,5S,8s)-3-(5-(6-(3-cyanopyrrolo[1,2-b]pyridazin-7-yl)-4-(isopropylamino)pyridin-3-yl)-1,3,4-thiadiazol-2-yl)-3-azabicyclo[3.2.1]octan-8-yl)morpholine-4-carboxamide]
TNFα; [1]
  EC50: 6.8 nM
IRAK4 enzyme; [2]
  IC50: 1.16 nM

## CC(C)(O)C(=O)N[C@@H]1[C@@H]2CC[C@H]1CN(c1nnc(-c3cnc(-c4ccc5cc(C#N)cnn45)cc3NC3CCOCC3)s1)C2 [Example 101, N-((1R,5S,8s)-3-(5-(6-(3-cyanopyrrolo[1,2-b]pyridazin-7-yl)-4-((tetrahydro-2H-pyran-4-yl)amino)pyridin-3-yl)-1,3,4-thiadiazol-2-yl)-3-azabicyclo[3.2.1]octan-8-yl)-2-hydroxy-2-methylpropanamide]
TNFα; [1]
  EC50: 1.2 nM
IRAK4 enzyme; [2]
  IC50: 0.89 nM

## CC(=O)N[C@H]1[C@@H]2C[C@H]1CN(c1nnc(-c3cnc(-c4ccc5cc(C#N)cnn45)cc3NC(C)C)s1)C2 [Example 45, N-((1R,5S,6r)-3-(5-(6-(3-cyanopyrrolo[1,2-b]pyridazin-7-yl)-4-(isopropylamino)pyridin-3-yl)-1,3,4-thiadiazol-2-yl)-3-azabicyclo[3.1.1]heptan-6-yl)acetamide]
TNFα; Homo sapiens, Monocyte
  EC50: 11.8 nM
IRAK4 enzyme; [2]
  IC50: 1.13 nM

## CC(=O)N[C@@H]1[C@@H]2CC[C@H]1CN(c1nnc(-c3cnc(-c4ccc5cc(C#N)cnn45)cc3NC3(C)CCOCC3)s1)C2 [Compound 272, N-((1R,5S,8s)-3-(5-(6-(3-cyanopyrrolo[1,2-b]pyridazin-7-yl)-4-((4-methyltetrahydro-2H-pyran-4-yl)amino)pyridin-3-yl)-1,3,4-thiadiazol-2-yl)-3-azabicyclo[3.2.1]octan-8-yl)acetamide]
TNFα; [1]
  EC50: 4.1 nM
IRAK4 enzyme; [2]
  IC50: 1.1 nM

## CC(=O)N[C@H]1[C@@H]2CN(c3nnc(-c4cnc(-c5ccc6cc(C#N)cnn56)cc4NC(C)C)s3)C[C@@H]21 [Compound 240, N-((1R,5S,6s)-3-(5-(6-(3-cyanopyrrolo[1,2-b]pyridazin-7-yl)-4-(isopropylamino)pyridin-3-yl)-1,3,4-thiadiazol-2-yl)-3-azabicyclo[3.1.0]hexan-6-yl)acetamide]
TNFα; [1]
  EC50: 8.9 nM
IRAK4 enzyme; [2]
  IC50: 0.15 nM

## CC(C)Nc1cc(-c2ccc3cc(C#N)cnn23)ncc1-c1nnc(N2C[C@H]3CC[C@@H](C2)[C@@H]3N2CCOC2=O)s1 [Compound 301, 7-(4-(isopropylamino)-5-(5-((1R,5S,8s)-8-(2-oxooxazolidin-3-yl)-3-azabicyclo[3.2.1]octan-3-yl)-1,3,4-thiadiazol-2-yl)pyridin-2-yl)pyrrolo[1,2-b]pyridazine-3-carbonitrile]
TNFα; [1]
  EC50: 4.9 nM
IRAK4 enzyme; [2]
  IC50: 1.04 nM

## COC(=O)N[C@H]1CC[C@H](Nc2cc(-c3ccc4cc(C#N)cnn34)ncc2-c2nnc(N3C[C@H]4CC[C@@H](C3)[C@@H]4NC(C)=O)s2)CC1 [Example 54, methyl ((1R,4r)-4-((5-(5-((1R,5S,8S)-8-acetamido-3-azabicyclo[3.2.1]octan-3-yl)-1,3,4-thiadiazol-2-yl)-2-(3-cyanopyrrolo[1,2-b]pyridazin-7-yl)pyridin-4-yl)amino)cyclohexyl)carbamate]
TNFα; [1]
  EC50: 2.4 nM
IRAK4 enzyme; [2]
  IC50: 0.73 nM

## CC(C)Nc1cc(-c2ccc3cc(C#N)cnn23)ncc1-c1nnc(C(=O)N2CCC[C@H]2CO)s1 [Example 217, (S)-7-(5-(5-(2-(hydroxymethyl)pyrrolidine-1-carbonyl)-1,3,4-thiadiazol-2-yl)-4-(isopropylamino)pyridin-2-yl)pyrrolo[1,2-b]pyridazine-3-carbonitrile]
TNFα; [1]
  EC50: 11.1 nM
IRAK4 enzyme; [2]
  IC50: 0.81 nM

## CC(=O)N[C@H]1CC[C@H](c2nnc(-c3cnc(-c4ccc5cc(C#N)cnn45)cc3N[C@H]3C[C@@](C)(O)C3)s2)CC1 [Compound 243, N-((1R,4r)-4-(5-(6-(3-cyanopyrrolo[1,2-b]pyridazin-7-yl)-4-(((1s,3S)-3-hydroxy-3-methylcyclobutyl)amino)pyridin-3-yl)-1,3,4-thiadiazol-2-yl)cyclohexyl)acetamide]
TNFα; [1]
  EC50: 6.4 nM
IRAK4 enzyme; [2]
  IC50: 0.55 nM

## COC(=O)NC[C@H]1C[C@H](Nc2cc(-c3ccc4cc(C#N)cnn34)ncc2-c2nnc([C@H]3CC[C@H](NC(=O)N4CCOCC4)CC3)s2)C1 [Example 143, methyl (((1R,3r)-3-((2-(3-cyanopyrrolo[1,2-b]pyridazin-7-yl)-5-(5-((1r,4R)-4-(morpholine-4-carboxamido)cyclohexyl)-1,3,4-thiadiazol-2-yl)pyridin-4-yl)amino)cyclobutyl)methyl)carbamate]
TNFα; [1]
  EC50: 3.1 nM
IRAK4 enzyme; [2]
  IC50: 0.34 nM

## COC(=O)N[C@H]1CC[C@H](c2nnc(-c3cnc(-c4ccc5cc(C#N)cnn45)cc3NC(C)C)s2)CC1 [Example 126, methyl ((1r,4r)-4-(5-(6-(3-cyanopyrrolo[1,2-b]pyridazin-7-yl)-4-(isopropylamino)pyridin-3-yl)-1,3,4-thiadiazol-2-yl)cyclohexyl)carbamate]
TNFα; [1]
  EC50: 26.2 nM
IRAK4 enzyme; [2]
  IC50: 0.89 nM

## CC(=O)N[C@H]1CC[C@H](c2nnc(-c3cnc(-c4ccc5cc(C#N)cnn45)cc3NC(C)C)s2)CC1 [Example 24, N-((1r,4r)-4-(5-(6-(3-cyanopyrrolo[1,2-b]pyridazin-7-yl)-4-(isopropylamino)pyridin-3-yl)-1,3,4-thiadiazol-2-yl)cyclohexyl)acetamide]
IRAK4 enzyme; Table 2 first part (compounds 1-32), read-out: IC50 HTRF
  IC50: < 1 nM

## CC(=O)N[C@@H]1CCN(c2nnc(-c3cnc(-c4ccc5cc(C#N)cnn45)cc3NC(C)C)s2)C[C@@H]1O [Example 63, N-((3S,4R)-1-(5-(6-(3-cyanopyrrolo[1,2-b]pyridazin-7-yl)-4-(isopropylamino)pyridin-3-yl)-1,3,4-thiadiazol-2-yl)-3-hydroxypiperidin-4-yl)acetamide]
IRAK4 enzyme; [2]
  IC50: 0.29 nM
